In experiment [1] the test system is A549 NRF2-ARE-Fluc stable cell line. In words: A549 Nrf2 assay: NRF2-ARE firefly luciferase reporter gene assay. The conditions noted are these: read-out: Potency of inhibition, A549. In kind it is cell-based. An excerpt: A549, the parental cell line, is a non-small-cell lung cancer (NSCLC) cell line with loss-of-function (LOF) Keap1 activity, thus NRF2 transcription factor constitutively translocates into the nucleus to activate the expression of downstream target genes of NRF2. A firefly luciferase reporter (Fluc) construct driven by a minimal promoter of NRF2-specific anti-oxidant responsive element (ARE) is stably expressed in the A549 cells. Compounds that reduce the translocation of NRF2 into the nucleus or prevent the interaction between NRF2 and ARE will lead to a decrease in luciferase activity.
The final concentration of DMSO was maintained at 0.46%. Control compounds Budesonide and Staurosporine were both added at a concentration of 2 mM and Budesonide also was added as a 1:10 titration, starting at 200 μM, to achieve dose-response. After an 18-24 hour incubation at 37° C., 95% humidity, and 5% CO2, 1 μL of 5× CellTiter-Fluor non-lytic cell viability assay reagent (Promega, Madison, Wis.) was added into the each well of the plates. The plates were then incubated for 30 minutes at room temperature before they were read on a ViewLux plate imager (Perkin Elmer, Waltham, Mass.) using an excitation wavelength of 405 nm and an emission wavelength of 525 nm.
A cell based reporter assay approach was used for the identification of agents that could inhibit Nrf2 mediated gene expression (FIG. 1). A549-ARE-luciferase cells express the luciferase gene driven by a minimal promoter and an enhancer element containing an NRF2 binding site (Antioxidant Response Element, ARE).
(§1) Representative compounds were assayed to assess the potency of inhibition in an A549 NRF2-ARE-Fluc stable cell line (A549 Nrf2 assay), in an H838 NRF2-ARE-Fluc stable cell line (H838 Nrf2 assay), and in an H1437 NRF2-ARE-Fluc stable cell line (H1437 Nrf2 assay) (see Table 3).

In experiment [2] the test system is H1437 NRF2-ARE-Fluc stable cell line. In words: H1437 Nrf2 assay: NRF2-ARE firefly luciferase reporter gene assay. The conditions noted are these: read-out: Potency of inhibition, H1437. The class given is cell-based.
Source text: H1437 is another NSCLC cell line with LOF Keap1 activity and constitutive translocation of NRF2 into the nucleus. A firefly luciferase reporter construct driven by a minimal promoter of NRF2-specific ARE is stably expressed in the H1437 cells. This cell line was used as a confirmation assay to make sure hits identified from primary screening and that passed counterscreen assays worked in different cell types with a constitutively active NRF2 pathway (deficiency in Keap1).
This assay was very similar to the primary assay except that the cell line was changed. […] The final concentration of DMSO was maintained at 0.46%. Control compounds Budesonide and Staurosporine were both added at a concentration of 2 mM and Budesonide was also added as a 1:10 titration, starting at 200 μM, to achieve dose-response. After an 18-24 hour incubation at 37° C., 95% humidity, and 5% CO2, 1 μL of 5× CellTiter-Fluor non-lytic cell viability assay reagent (Promega, Madison Wis.) was added into the each well of the plates. The plates were then incubated for 30 minutes at room temperature before they were read on a ViewLux plate imager (Perkin Elmer, Waltham Mass.) using an excitation wavelength of 405 nm and an emission wavelength of 525 nm.
as §1

Where [3] appears, read: Homo sapiens, NCI-H1437, H1437 NRF2-ARE-Fluc stable cell line.

Where two headings read alike, the source gives them in different places.

In the case of `COc1ccc(-c2cc(C)no2)cc1S(=O)(=O)N1CCN(c2ccc([N+](=O)[O-])cc2)CC1` [Compound 42], the IC50 in experiment [1] (Homo sapiens) and in experiment [2] (setting [3]) was below 5 µM throughout.

`Cc1sc(NC(=O)Cc2ccc3c(c2)OCO3)nc1-c1ccc2c(c1)CCN2C` [Compound 26]: the IC50 was 5 to 25 µM in experiment [1] (Homo sapiens) and above 25 µM in experiment [2] (setting [3]).

For `Cc1sc(NC(=O)Cc2ccc3c(c2)OCO3)nc1-c1ccc2c(c1)CCN2C(=O)c1ccccc1C(C)C` [Compound 138], the IC50 in experiment [1] (Homo sapiens) was below 5 µM; in experiment [2] (setting [3]), above 25 µM.

Regarding `Cc1sc(NC(=O)Cc2ccc3c(c2)OCO3)nc1-c1ccc2c(c1)CCN2C(=O)c1cccn1C` [Compound 184], the IC50 in experiment [1] (Homo sapiens) and in experiment [2] (setting [3]) was below 5 µM in each case.

Consider `Cc1ccccc1C(=O)N1CCc2cc(-c3nc(NC(=O)CN4CCN(c5ccccc5)CC4)sc3C)ccc21` [Compound 229], for which the IC50 in experiment [1] (Homo sapiens) and in experiment [2] (setting [3]) was below 5 µM throughout.

Consider `O=C(Nc1ccc(S(=O)(=O)N2CCOCC2c2ccccc2)cc1)c1ccc(CN2CCc3ccccc3C2)cc1` (centres unmarked) [compound 165], for which the IC50 was below 5 µM in experiment [1] (Homo sapiens) and 5 to 25 µM in experiment [2] (setting [3]).

Turning to `O=C(Nc1ccc(S(=O)(=O)N2CCOCC2)cc1)c1ccc(N2CCc3ccccc3C2)cc1` [compound 152], the IC50 in experiment [1] (Homo sapiens) and in experiment [2] (setting [3]) was below 5 µM in each case.

For the compound `Cc1ccc(Cc2cnc(NC(=O)c3ccn(-c4ccccc4)n3)s2)cc1` [Compound 221], the IC50 in experiment [1] (Homo sapiens) and in experiment [2] (setting [3]) was 5 to 25 µM each time.

As for `Cc1ccccc1C(=O)N1CCc2cc(-c3nc(NC(=O)Cc4ccc(OCCOCCOCCN)cc4)sc3C)ccc21` [Compound 239, 2-(4-(2-(2-(2-aminoethoxy)ethoxy)ethoxy)phenyl)-N-(5-methyl-4-(1-(2-methylbenzoyl)indolin-5-yl)thiazol-2-yl)acetamide], the results for the IC50 in experiment [1] (Homo sapiens) and in experiment [2] (setting [3]) were above 25 µM and 5 to 25 µM, respectively.

On to `O=C(Nc1ccc(Cl)c(S(=O)(=O)N2CCOCC2)c1)c1ccccc1` [compound 62], for which the IC50 in experiment [1] (Homo sapiens) and in experiment [2] (setting [3]) was 5 to 25 µM each time.

Turning to `COc1ccc(Cc2cnc(NC(=O)c3ccn(-c4ccccc4)n3)s2)cc1` [Compound 223], the IC50 in experiment [1] (Homo sapiens) and in experiment [2] (setting [3]) was 5 to 25 µM each time.

In the case of `CC1CN(S(=O)(=O)c2ccc(NC(=O)c3ccc(CN4CCc5ccccc5C4)cc3)cc2)CCO1` (centres unmarked) [compound 169], the IC50 in experiment [1] (Homo sapiens) and in experiment [2] (setting [3]) was below 5 µM in each case.

Consider `Cc1ccccc1S(=O)(=O)N1CCc2cc(-c3nc(NC(=O)Cc4ccc(C(F)(F)F)cc4)sc3C)ccc21` [Compound 134], for which the IC50 in experiment [1] (Homo sapiens) was below 5 µM; in experiment [2] (setting [3]) it was above 25 µM.

As for `Cc1ccccc1C(=O)N1CCc2cc(N3CCCC(NC(=O)Cc4ccccc4)C3)ccc21` (centres unmarked) [Compound 97], the IC50 in experiment [1] (Homo sapiens) and in experiment [2] (setting [3]) was 5 to 25 µM in each case.

As to `O=C(Nc1ncc(Cc2ccc(C(F)(F)F)cc2)s1)c1ccc(-c2ccccc2)s1` [Compound 83], the IC50 in experiment [1] (Homo sapiens) and in experiment [2] (setting [3]) was above 25 µM in each case.

As for `O=C(O)c1ccc(CN2CCc3ccccc3C2)cc1` [Compound 90, 4-((3,4-dihydroisoquinolin-2(1H)-yl)methyl)benzoic acid], the IC50 in experiment [1] (Homo sapiens) and in experiment [2] (setting [3]) was above 25 µM each time.

Consider `Cc1cccc(CC(=O)Nc2nc(-c3ccc4c(c3)CCN4S(=O)(=O)c3ccccc3C)c(C)s2)c1` [Compound 131], for which the IC50 in experiment [1] (Homo sapiens) and in experiment [2] (setting [3]) was 5 to 25 µM in each case.

Regarding `O=C(Nc1ncc(Cc2ccc(C(F)(F)F)cc2)s1)c1ccco1` [Compound 15], the IC50 in experiment [1] (Homo sapiens) and in experiment [2] (setting [3]) was above 25 µM in each case.

As to `Cc1ccccc1C(=O)N1CCc2cc(-c3cncc(NC(=O)Cc4ccccc4)n3)ccc21` [Compound 104], the IC50 in experiment [1] (Homo sapiens) is below 5 µM; in experiment [2] (setting [3]), 5 to 25 µM.

On to `Cc1sc(NC(=O)Cc2ccc3c(c2)OCO3)nc1-c1ccc2c(c1)CCN2C(=O)c1ccccc1` [Compound 14], for which the figures for the IC50 in experiment [1] and in experiment [2] (H1437 NRF2-ARE-Fluc stable cell line) were below 5 µM and 5 to 25 µM, respectively.

With `Cc1ccccc1C(=O)N1CCc2cc(-c3nc(NC(=O)c4ccc5c(c4)OCO5)sc3C)ccc21` [Compound 13], the IC50 was below 5 µM in experiment [1] (Homo sapiens) and 5 to 25 µM in experiment [2] (setting [3]).

Turning to `CCC(=O)N1c2ccc(S(=O)(=O)N3CCN(c4ccc([N+](=O)[O-])cc4)CC3)cc2CC1C` (centres unmarked) [Compound 40], the IC50 in experiment [1] (Homo sapiens) and in experiment [2] (setting [3]) was below 5 µM throughout.

Turning to `Cc1ccccc1C(=O)N(C)c1ccc(-c2cccc(NC(=O)Cc3ccccc3)n2)cc1` [Compound 68], the IC50 in experiment [1] (Homo sapiens) and in experiment [2] (setting [3]) was 5 to 25 µM in each case.

Turning to `O=C(Cc1ccccc1)Nc1cccc(-c2ccc3[nH]ncc3c2)n1` [Compound 91, N-(6-(1H-indazol-5-yl)pyridin-2-yl)-2-phenylacetamide], the IC50 was 5 to 25 µM in experiment [1] (Homo sapiens) and above 25 µM in experiment [2] (setting [3]).

Turning to `O=C(Nc1ccc(C(=O)N2CCOCC2)cc1)c1ccc(CN2CCc3ccccc3C2)cc1` [compound 147], the figures for the IC50 in experiment [1] (Homo sapiens) and in experiment [2] (setting [3]) were 5 to 25 µM and above 25 µM, respectively.

For `O=C(Nc1ncc(CN2CCOCC2)s1)c1ccc(-c2cccc([N+](=O)[O-])c2)o1` [Compound 81], the IC50 in experiment [1] (Homo sapiens) and in experiment [2] (setting [3]) was 5 to 25 µM throughout.

For `Cc1ccccc1S(=O)(=O)N1CCc2cc(-c3nc(NC(=O)Cc4ccccc4Cl)sc3C)ccc21` [Compound 123], the IC50 was below 5 µM in experiment [1] (Homo sapiens) and above 25 µM in experiment [2] (setting [3]).

`Cc1ccccc1S(=O)(=O)N1CCc2cc(-c3nc(NC(=O)Cc4cccnc4)sc3C)ccc21` [Compound 130]: the IC50 in experiment [1] (Homo sapiens) and in experiment [2] (setting [3]) was below 5 µM in each case.

On to `O=C(Nc1ccc(S(=O)(=O)N2CCOCC2)cc1)c1cccc(CN2CCc3ccccc3C2)c1` [Compound 211], for which the IC50 in experiment [1] (Homo sapiens) and in experiment [2] (setting [3]) was 5 to 25 µM throughout.

With `O=C(Nc1cncc(Cc2ccccc2)c1)c1ccc(-c2cccc([N+](=O)[O-])c2)o1` [Compound 170], the IC50 in experiment [1] (Homo sapiens) and in experiment [2] (setting [3]) was 5 to 25 µM each time.

As to `O=C(Nc1ccc(S(=O)(=O)N2CCOCC2)cc1)c1ccc(CCN2CCc3ccccc3C2)cc1` [compound 166], the IC50 was below 5 µM in experiment [1] (Homo sapiens) and 5 to 25 µM in experiment [2] (setting [3]).

For the compound `O=C(Nc1ccc(Cl)c(S(=O)(=O)N2CCOCC2)c1)c1ccc(S(=O)(=O)N2CCOCC2)cc1` [compound 55], the IC50 in experiment [1] (Homo sapiens) and in experiment [2] (setting [3]) was below 5 µM throughout.

For `O=C(NC1CCCN(Cc2ccccc2)C1)c1ccc(-c2cccc([N+](=O)[O-])c2)o1` (centres unmarked) [Compound 103], the IC50 in experiment [1] (Homo sapiens) and in experiment [2] (setting [3]) was above 25 µM each time.

Consider `Cc1ccccc1C(=O)N1CCc2cc(-c3nc(NC(=O)CN4CCOCC4)sc3C)ccc21` [Compound 77], for which the IC50 in experiment [1] (Homo sapiens) and in experiment [2] (setting [3]) was 5 to 25 µM each time.

On to `O=C(Nc1ncc(Cc2ccc(C(F)(F)F)cc2)s1)c1ccnc(-c2ccccc2)c1` [Compound 58], for which the figures for the IC50 in experiment [1] (Homo sapiens) and in experiment [2] (setting [3]) were above 25 µM and 5 to 25 µM, respectively.

`Cc1ccc(C(=O)N2CCc3cc(-c4nc(NC(=O)Cc5ccc6c(c5)OCO6)sc4C)ccc32)cc1` [Compound 23]: the IC50 in experiment [1] (Homo sapiens) is 5 to 25 µM; in experiment [2] (setting [3]), above 25 µM.

As for `O=C(Nc1ccc([S+](=O)([O-])O)cc1)c1ccc(CN2CCc3ccccc3C2)cc1` [compound 156], the IC50 in experiment [1] (Homo sapiens) and in experiment [2] (setting [3]) was above 25 µM throughout.

As to `COc1cccc(Cc2cnc(NC(=O)c3ccn(-c4ccccc4)n3)s2)c1` [Compound 219], the IC50 in experiment [1] (Homo sapiens) was below 5 µM; in experiment [2] (setting [3]), 5 to 25 µM.

Consider `Cc1ccccc1C(=O)N1CCc2cc(-c3nc(NC(=O)CN4CCN(C(=O)OC(C)(C)C)CC4)sc3C)ccc21` [Compound 69, tert-butyl 4-(2-((5-methyl-4-(1-(2-methylbenzoyl)indolin-5-yl)thiazol-2-yl)amino)-2-oxoethyl)piperazine-1-carboxylate], for which the IC50 in experiment [1] (Homo sapiens) and in experiment [2] (setting [3]) was below 5 µM in each case.

Regarding `CN1CCN(S(=O)(=O)c2ccc(NC(=O)c3ccc(CN4CCc5ccccc5C4)cc3)cc2)CC1` [compound 146], the IC50 in experiment [1] (Homo sapiens) was below 5 µM; in experiment [2] (setting [3]), above 25 µM.

The record behind these values is US20160046616A1, “NRF2 SMALL MOLECULE INHIBITORS FOR CANCER THERAPY” (THE JOHNS HOPKINS UNIVERSITY, priority 2013, published 2016).
